Literature values, collected in patent US20090117199A1, “Method of treatment of cancer” (priority 1998, published 2009).
Read-outs that look alike come from different tables or passages of the source.

Assays:
melanoma [1] = conditions: single-agent chemotherapy; cited from earlier work
melanoma [2] = conditions: cited from earlier work
[3] = IL cisplatin or IL cisplatin with electroporation, lower end of reported results
[4] = IL cisplatin or IL cisplatin with electroporation, upper end of reported results

For `CN(C)/N=N/c1[nH]cnc1C(N)=O` [dacarbazine], the “cases in which treatment is successful” value (melanoma [1]) is given as 10-15%.

In the case of bleomycin, the efficacy (melanoma [2]; single electrochemotherapy treatment, IL, response reduced in larger tumors) is given as “Substantial efficacy”.

In the case of `N.N.[Cl][Pt][Cl]` [cisplatin], the CR (melanoma [2]; [3]) is listed as 19%, the ORR (melanoma [2]; [3]) is listed as 38% and the PR (melanoma [2]; [3]) is listed as 19%. For the same molecule, the CR (melanoma [2]; [4]) was 47%, the ORR (melanoma [2]; [4]) was 53% and the PR (melanoma [2]; [4]) was 7%. The ORR (melanoma [2]; lesions having a median diameter of 3.0 cm) was 44% and the ORR (melanoma [2]; lesions with a median diameter of 0.6 cm) was 53%.

B1: IFNγ: IL interferon (protein, UniProt P01579 24-161, looked up)
Interferon gamma: QDPYVKEAENLKKYFNAGHSDVADNGTLFLGILKNWKEESDRKIMQSQIVSFYFKLFKNFKDDQSIQKSVETIKEDMNVKFFNSNKKKRDDFEKLTNYSVTDLNVQRKAIHELIQVMAELSPAAKTGKRKRSQMLFRG
For B1, the response (melanoma [2]; IL therapy, prior reports) is listed as “no result of transient response” and the “toxicity and side effects” value (melanoma [2]; in vivo) is listed as “significant toxicity and side effects”.
